Laboratory results reported in patent US20250051316A1, “2-(ARYL-2-YL) […] […], PREPARATION METHOD THEREFOR AND APPLICATION THEREOF” (SHANGHAI HANSOH BIOMEDICAL CO., LTD., priority 2021, published 2025).
Marks after values point to notes of the source that are not given here.

How the values were obtained:
[1] = Pharmacokinetic assay of Balb/c mice, plasma and brain, oral; type: in vivo; settings: male, mouse, p.o. 5 mg/kg
Experimental: Test Example 3. Pharmacokinetic Assay of Balb/c Mice
Balb/c Mice were used as test animals. The pharmacokinetic behavior of the compounds of the present invention was studied in the plasma and brain of mice administered orally at the dose of 5 mg/kg.
Balb/c Mice, male, Shanghai Jiesijie Experimental Animal Co., Ltd., animal production license number (SCXK (Shanghai) 2013-0006 N0.311620400001794).
After fasting overnight, 24 male Balb/c mice were administered p.o. at a dose of 5 mg/kg and an administration volume of 10 mL/kg, respectively.
Drug formulation for oral administration: 0.5% CMC-Na (1% Tween 80).
After CO2 euthanasia of experimental animals, heart blood and brain tissue were collected at 0.25 h, 0.5 h, 1 h, 2 h, 4 h, 6 h, 8 h, and 24 h after administration. The blood was placed in EDTA-2K tubes and centrifuged at 4° C. and 6000 rpm for 6 minutes to separate plasma. The brain tissue was washed with pre-cooled PBS, dried, weighed, and stored at −80° C. The animals were feed 4 hours after administration.
1) 160 μL of acetonitrile was added to 40 μL of the plasma sample for precipitation, and then the mixture was centrifuged at 3500×g for 5-20 min.
2) 100 μL of the supernatant was taken to analyze the concentration of the test compound by LC/MS/MS.
• Liquid chromatography condition: Shimadzu LC-20AD pump • Mass spectrometry condition: AB Sciex API 4000 mass spectrometer • Chromatographic column: phenomenex Gemiu 5 μm C18 50×4.6 mm • Mobile phase: Eluent A was 0.10% formic acid in water, and Eluent B was acetonitrile • Flow rate: […] • Elution time: 0-4.0 minutes, the eluent is as follows:
The main pharmacokinetic parameters were calculated using WinNonlin8.1, and the results of the pharmacokinetic experiments in mouse are shown in the table below.

TAAR1 receptor = biological target: T1, TAAR1 receptor (Homo sapiens, UniProt Q96RJ0); experiment: Effect on cAMP content in cells which stably express TAAR1 receptor; type: cell-based
T1 construct: expressed in transfected cells
T1 sequence (Q96RJ0 1-339): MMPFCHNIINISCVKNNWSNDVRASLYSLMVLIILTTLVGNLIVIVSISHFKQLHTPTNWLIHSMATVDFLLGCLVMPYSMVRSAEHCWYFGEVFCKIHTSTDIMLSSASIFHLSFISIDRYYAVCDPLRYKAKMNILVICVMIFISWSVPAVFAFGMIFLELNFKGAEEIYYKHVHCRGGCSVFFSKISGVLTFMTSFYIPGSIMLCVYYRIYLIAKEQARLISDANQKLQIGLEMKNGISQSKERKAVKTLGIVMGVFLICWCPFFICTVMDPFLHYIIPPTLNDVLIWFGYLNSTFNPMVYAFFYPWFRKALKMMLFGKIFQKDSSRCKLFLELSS
Experimental: Test Example1. Determination of the effect of the present compound on cAMP content in cells which stably express TAAR1 receptor
Determination of the activation effect of compounds on TAAR1 receptors.
• 1) Preparation of experimental buffer: 1*HBSS+20 mM HEPES+0.1% BSA+500 μM IBMX. • 2) Complete medium: • Ham's F12K+10% Fetal Bovine Serum+1*Penicillin-Streptomycin+200 μg/mL Hygromycin B for CHO • DMEM+10% Fetal Bovine Serum+1*Penicillin-Streptomycin+200 μg/mL Hygromycin B for HEK293 • 3) TAAR1 cell line was cultured in complete medium at 37° C. and 5% CO2; After TrypLE digestion, the cells were resuspended in the experimental buffer and seeded into a 384 cell culture plate with a density of 8000 cells/15 ul/well. • 4) The compound was diluted with experimental buffer and added 5 μL to each well to culture at 37° C. for 30 minutes. • 5) cAMP-d2 and Anti cAMP Eu3+ were freeze thaw, and diluted 20 times with lysis buffer; 10 μL cAMP-d2 was added to the experimental well, and then 10 μL Anti cAMP Eu3+ was added into the experimental well; the reaction plate was centrifuged at 200 g for 30 seconds at room temperature, and stand at 25° C. for 1 hour; data was collected by Envision.
[formula] • 5) EC50 of compounds was calculated using GraphPad nonlinear fitting formula:
[formula] • X: Log value of the compound concentration; Y: Activation %

[2] = tested on: C57BL/6 mice, high spontaneous activity induced by phencyclidine (PCP); experiment: High spontaneous activity model of mice induced by phencyclidine (PCP); type: in vivo; settings: 60 minutes after modeling
Text: Test Example 2. Pharmacodynamic Evaluation of the Present Compounds in Mice Model of High Spontaneous Activity Induced by Phencyclidine (PCP)
The purpose of the experiment is to evaluate the efficacy of compounds in a high spontaneous activity model of C57BL/6 mice induced by phencyclidine (PCP) using the spontaneous activity method.
C57BL/6 mice, provided by Shanghai Lingchang Biotechnology Co., Ltd., male, 6-8 weeks, 20-24 g, 36 mice.
The day before the experimental test, the animals were placed in the laboratory and acclimated for 8 hours.
On the day of adaptation, the animals were randomly grouped according to their weight.
The animals were weithed and treated with solvent control (20% HP-3-CD), compounds of the present invention (oral administration) respectively. 30 minutes later, modeling (intraperitoneal administration) was performed, and the animals were given physiological saline or phencyclidine, with dosage volume of 10 mL/kg.
After the administration, the animals were placed in observation box and the spontaneous activity was detected for 30 minutes. The moving distance (meters) of the animals in the observation box was counted every 5 minutes.
After 30 minutes, the animals were taken out for modeling and then placed in the observation box to test their spontaneous activity for 60 minutes. The moving distance (meters) of the animals in the observation box was counted every 5 minutes.
Excel software was used to collect data. A Two-Way ANOVA or One-Way ANOVA was conducted used Prism (Graph pad software, Inc.) software. p<0.05 was considered significant difference.

[3] = compound 3 mg/kg oral + PCP 5 mg/kg i.p.
[4] = compound 1 mg/kg oral + PCP 5 mg/kg i.p.

Row | Structure (SMILES) | AUC(0-t) ([1]; Brain) [ng·h/mL] | Cmax ([1]; Brain) [ng/mL] | Tmax ([1]; Brain) [min] | half-life ([1]; Brain) [min] | AUC(0-t) ([1]; Plasma) [ng·h/mL] | Cmax ([1]; Plasma) [ng/mL] | Tmax ([1]; Plasma) [min] | half-life ([1]; Plasma) [min] | EC50 (TAAR1 receptor) [nM] | Total distance (m, Mean ± SEM) 60 minutes [2, 3] | Total distance (m, Mean ± SEM) 60 minutes [2, 4] | Total distance (m, Mean ± SEM) 60 minutes ([2]; compound 10 mg/kg oral + PCP 5 mg/kg i.p.)
1 | [2H]C1([2H])COC(c2cccc(C)n2)CN1 (single isomer, unassigned) [Example 10-2, 2-(6-Methylpyridin-2-yl)morpholin-5,5-d2] | 12500 | 3540 | 30 | 150 | 5430 | 1320 | 15 | 144 | 5.4 | 152.6*** m |  | 
2 | [2H]C1([2H])CO[C@@H](c2ccc(F)cn2)CN1 (single isomer, unassigned) [Example 17-2, 2-(5-fluoropyridin-2-yl)morpholin-5,5-d2] | 7500 | 3160 | 30 |  | 2630 | 1450 | 15 | 78 | 8.3 | 114.1*** m | 140.1*** m | 
3 | [2H]C1([2H])CO[C@H](c2ccc(F)cc2)CN1 (single isomer, unassigned) [Example 33-1, 2-(4-Fluorophenyl)morpholin-5,5-d2] | 15300 | 8360 | 15 | 192 | 5030 | 1970 | 15 | 192 | 7.9 | 126.3*** m | 136.4*** m | 83.23*** m
